# Reference: patent publication US20180289655A1, “Methods and Compositions for the Intravenous Administration of Fumarates for the Treatment of Neurological Diseases” (Biogen MA Inc., priority 2015, published 2018)
# “Also recorded” adds a separate entry of the source. Structures can show the parent of a compound that is named as a salt.
# Columns and labels:
# [1] = MMF exposure in plasma and tissues after DMF PO or IV once daily for 5 days (LC-MS/MS); format: in vivo, Sprague-Dawley rats
# Method: On Day 5 of the study 3 time points were evaluated: 10 minutes, 2 hours, and 6 hours after dosing, as illustrated in the timeline. At each time point, 5 animals from each group were sacrificed. At the 2 and 6 hour time points, the tissue samples from groups E, F, I, and J from each animal were split, with half of the tissue being processed for MMF exposure, and half processed for qRT-PCR. Note vehicle groups (C, D, G, and H) were not processed for MMF measurement and only used for qRT-PCR.
# At 10 minutes, 2 and 6 hours, plasma and tissues (forebrain, cerebellum, jejunum, kidney and spleen) from cohorts of animals (Groups A, B, E, F, I, J) were collected to measure the concentration of MMF in the sample. MMF was quantitated using a non-GLP, but validated LC/MS/MS assay. Statistical comparisons were performed using the non-parametric Mann-Whitney U test.
# As mentioned previously, Sprague-Dawley rats were sacrificed and terminal plasma and tissue samples were collected 10 minutes, 2 and 6 hours after dosing and MMF exposure in plasma, brain, cerebellum, jejunum and kidney was determined as follows. Tissues were snap frozen on dry ice after dissection. Immediately prior to blood collection, 4 μL of 250 mg/mL stock mixture of sodium fluoride (NaF) in water was added to each 100 μL of blood collected in a lithium heparin tube. The stock NaF mixture was prepared on the day of use and kept as a homogenous suspension through continuous stirring on a stir plate. Whole blood was added to the tube, and then samples were inverted several times and stored on wet ice (2° C. to 8° C.). All samples were centrifuged within 30 minutes of collection at 4° C. for 15 minutes at 1500×g (4200 RPM). Plasma was then transferred into pre-chilled tubes, immediately frozen on dry ice and maintained frozen (≤−80° C.) until analysis.
# Aliquots (50 μL) of either plasma or tissue homogenate samples were extracted by protein precipitation with acetonitrile containing methylethyl fumarate or −4C13-MMF as the internal standard. For tissue samples, aliquots of homogenization solution (‘blank’ plasma with 12.5 mg/mL of NaF) were added to the tissue samples. The tissue samples were homogenized at 6.5 m/s for 60 seconds on a Fast Prep Tissue Homogenizer prior to protein precipitation. Concentrations of MMF in plasma, forebrain, cerebellum, jejunum, spleen and kidney samples were determined using qualified LC-MS/MS assays in the respective matrices. Data collection and integration was accomplished using an API 5500 triple quadrupole mass spectrometer with a turbo ion spray interface (AB Sciex, Foster City, Calif.), and Analyst software (version 1.6.1). The peak area ratios of MMF relative to its internal standard were used to construct a standard curve using a quadratic regression with a 1/x^2 weighting. The lower limit of quantitation (LLOQ) was 10 ng/mL for all four assays. The performances of the assays were monitored by the precision and accuracy of the standards and quality control samples.
# [2] = Stability of DMF 20% Captisol solutions at ambient temperature (HPLC); format: physicochemical; conditions: for DMF area %: 20% Captisol
# From the text: Samples stored at ambient temperature were pulled at predetermined time points (0, 2 and 7 days), and analyzed by HPLC. [table]
# [3] = DMF IV formulation development: solubility in solvents and excipient vehicles; format: physicochemical
# Method: 2. […] For example, 2% DMSO (0.1 ml/kg/5 ml/kg*100%=2.0%), 10% PEG400 (1 ml/kg/5 ml/kg*50%=10%) and 20% Captisol (sulfobutyl ether cyclodextrin) (5 ml/kg/5 ml/kg*20%=20%) could be used for rodent IV formulation assumed the dosage of 5 ml/kg. 3. […] The studies were performed by making the PEG400 stock solution and diluting the solution with different vehicles (Table 16). […] 4.
# [4] = test system: malonate-induced striatal lesion in rats; test: Immunofluorescence microscopy (NeuN, GFAP) of lesioned rat brain sections; format: in vivo, Sprague-Dawley rats; conditions: DMF p.o. 100 mg/kg and vehicle
# Method: For tissue to be analyzed by immunofluorescence, animals were anesthetized and transcardially perfused with 4% paraformaldehyde. Brains were removed and post-fixed overnight at 4° C. Tissue was then transferred to 30% sucrose in PBS. Serial 25-μM frozen sections were cut in the coronal plane and air-dried onto gelatin-coated glass slides. All tissue sections were washed in PBS and blocked with 5% normal goat serum in solution with 0.1% Triton X-100/PBS for 45 minutes at room temperature. Sections were then incubated with monoclonal anti-NeuN (1:500; Millipore, Temecula, Calif., USA) for neurons and polyclonal anti-glial fibrillary acidic protein (GFAP) (1:600) for astrocytes in blocking solution overnight at 4° C. Secondary antibody incubations were for 1 hour at room temperature. All immunofluorescence images were acquired with Openlab and Spectrum software.
smiles,measurement,setting,value
"COC(=O)/C=C/C(=O)OC [DMF, dimethyl fumarate]",MMF level in any tissue,[1]; 6 hours after IV or PO DMF dosing,no detectable MMF in any tissue
same,MMF level in forebrain or cerebellum,"[1]; 6 hours after dosing, PO or IV",undetectable
same,MMF level in any tissue,"[1]; DMF IV 30 mg/kg, 2 hours",no MMF was detectable in any tissue
same,MMF level in brain,"[1]; DMF IV 30 mg/kg, 2 hours",below the level of quantitation
same,MMF level in plasma,"[1]; DMF IV 30 mg/kg, 6 hours",not detectable
same,"MMF levels in kidney, jejunum and spleen","[1]; DMF PO 100 mg/kg, 2 hours","markedly decreased, but detectable"
same,"MMF levels in jejunum, kidney and spleen, PO versus IV","[1]; PO 100 mg/kg vs IV 30 mg/kg, 10 minutes",these differences were not significant
same,Stability of DMF in 20% Captisol solution,[2]; 0.2 mg/ml,stable up to 2 days; also recorded: stable up to 2 d; also recorded: chemically and physically stable for 2 days
same,DMF area %,"[2]; 0.2 mg/ml, 2 d",99.5 area %
same,DMF area %,"[2]; 0.2 mg/ml, 7 d",97.2 area %
same,DMF area %,"[2]; 0.2 mg/ml, initial",99.7 area %
same,DMF area %,"[2]; 4 mg/ml, 7 d",99.4 area %
same,DMF area %,"[2]; 4 mg/ml, initial",99.7 area %
same,Solution or precipitated,"[3]; 5 mg/ml DMF in 15% HPbCD, heating then cooling to room temperature, final pH 3.51",solution
same,Solution or precipitated,"[3]; 5 mg/ml DMF in 20% Captisol, heating then cooling to room temperature, final pH 4.71",clear solution could be achieved
same,Suitable for 5 mg/ml dosage?,[3]; 10% PEG400 + 0.5% HPMC,No
same,Suitable for 5 mg/ml dosage?,[3]; 10% PEG400 + 0.5% HPMC + 0.2% SDS,No
same,Solution or precipitated,"[3]; 10% PEG400 + 0.5% HPMC + 0.2% SDS, final concentration 2.8 mg/ml",precipitated
same,Solution or precipitated,"[3]; 10% PEG400 + 0.5% HPMC, final concentration 2.8 mg/ml",precipitated
same,Suitable for 5 mg/ml dosage?,[3]; 10% PEG400 + 1.5% Poloxamer 188,No
same,Solution or precipitated,"[3]; 10% PEG400 + 1.5% Poloxamer 188, final concentration 2.8 mg/ml",precipitated
same,Suitable for 5 mg/ml dosage?,[3]; 10% PEG400 + 1.5% Poloxamer 237,No
same,Solution or precipitated,"[3]; 10% PEG400 + 1.5% Poloxamer 237, final concentration 2.8 mg/ml",precipitated
same,Suitable for 5 mg/ml dosage?,[3]; 10% PEG400 + 2.0% Tween 80,No
same,Solution or precipitated,"[3]; 10% PEG400 + 2.0% Tween 80, final concentration 2.8 mg/ml",precipitated
same,Suitable for 5 mg/ml dosage?,[3]; 10% PEG400 + 15% HPbCD,Might be
same,Solution or precipitated,"[3]; 10% PEG400 + 15% HPbCD, final concentration 2.8 mg/ml",generated clear solutions at 2.8 mg/ml; also recorded: Clear solution
same,Suitable for 5 mg/ml dosage?,[3]; 10% PEG400 + 20% Captisol,Might be
same,Solution or precipitated,"[3]; 10% PEG400 + 20% Captisol, final concentration 2.8 mg/ml",generated clear solutions at 2.8 mg/ml; also recorded: Clear solution
same,Suitable for 5 mg/ml dosage?,[3]; 10% PEG400 + D5W,No
same,Suitable for 5 mg/ml dosage?,[3]; 10% PEG400 + D5W phosphate buffer (pH 6.0),No
same,Solution or precipitated,"[3]; 10% PEG400 + D5W phosphate buffer (pH 6.0), final concentration 2.8 mg/ml",precipitated
same,Solution or precipitated,"[3]; 10% PEG400 + D5W, final concentration 2.8 mg/ml",precipitated
same,Suitable for 5 mg/ml dosage?,[3]; 10% PEG400 + H2O,No
same,Solution or precipitated,"[3]; 10% PEG400 + H2O, final concentration 2.8 mg/ml",precipitated
same,Suitable for 5 mg/ml dosage?,[3]; 10% PEG400 + Saline (pH 7),No
same,Solution or precipitated,"[3]; 10% PEG400 + Saline (pH 7), final concentration 2.8 mg/ml",precipitated
same,Suitable for 5 mg/ml dosage?,"[3]; 20% Captisol, final pH 4.71","Might be, 5 mg/ml solution could be"
same,solubility,"[3]; DMSO (pure solvent), organic solvent or mixture",23 to 29 mg/mL
same,solubility,"[3]; PEG400, organic solvent or mixture",38 to 46 mg/mL
same,solubility,"[3]; ethanol, organic solvent or mixture",< 20 mg/mL
same,solubility,"[3]; organic solvent or mixture, propylene Glycol (PG)",< 20 mg/mL
same,Astrocytes (GFAP) near the lesion border,[4],Astrocytes appear to survive in both vehicle and DMF treated animals
